{"source": "patent US20130317037A1", "about": "“METHOD OF ADMINISTRATION AND TREATMENT” (GlaxoSmithKline Intellectual Property Development Limited, priority 2010, published 2013)", "key": {"HCC1954": {"system": "HCC1954", "test": "Panel A proliferation assay (CellTiter-Glo); HER2 Gain ≧5, KRAS WT, PIK3CA p.H1047R", "type": "cell-based, human", "settings": "for IC50: Homo sapiens", "procedure": "(§1) A total of 15 breast cancer cell lines were used in this study. These cells were cultured in RPMI-1640 and supplemented with 5% or 10% fetal bovine serum, 2 mM GlutaMAX™ and 1 mM sodium pyruvate, or in growth medium recommended by the suppliers [American Type Culture Collection, Manassas, Va., USA; Developmental Therapeutics Program, National Cancer Institute, Bethesda, Md., USA; German Collection of Microorganisms and Cell Cultures (DSMZ), Braunschweig, Germany; European Collection of Cell Cultures (ECACC), Porton Down, UK]. Cells of each line were seeded into a 384-well microtiter plate at two cell densities. Low density ranges were 300-1800 cells/well, and a high density was 600 to 3600 cells/well). The plating density was determined by the rate of proliferation of the cell line in the absence of any inhibitor and varied amongst cell lines. High plating densities were double that of low density. Each cell density was plated in triplicate. In total there were 30 wells to be treated with increasing concentrations of Compound B for each cell line at each density. In addition, there were 24 wells of dimethyl sulfoxide (DMSO)-treated controls at each density. After seeding, the cells were incubated at 37° C. in 5% CO2 for 24 hours. Subsequently, Compound B was added to each cell line with 10 concentrations. The dosing solution of Compound B was first prepared in DMSO at a master stock concentration of 10 mM. 1:3 serial dilutions were then made of the stock solution to give a range of working stock concentrations; 10.00 mM, 3.164 mM, 1.001 mM, 316.9 μM, 100.3 μM, 31.74 μM, 10.04 μM, 3.178 μM, 1.006 μM and 318.3 nM. The working stock concentrations of Compound B were then dispensed into the seeded cancer cell lines using a Biomek FX liquid handler to give final treatment concentrations of 0.1% of the stock concentration. A similar volume of DMSO without Compound B was dispensed into the 24 control wells of each seeding density at a concentration of 0.1%. Also, a zero-time plate prepared with a similar cell seeding was read for each cell line at each seeding density immediately after the addition of the DMSO control. After a 72 h incubation, an equal volume of the CellTiter-Glo (CellTiter-Glo Luminescent Cell Viability Assay, Promega, Madison, Wis.) to that of the cell culture medium was added into each well of the plate. After the contents were mixed to induce cell lysis and stabilization, cell luminescence was recorded using a SpectraMax M5^e (Molecular Devices, Sunnyvale, Calif., USA)\nThe luminescence of Compound B treated cells was compared relative to the average of the 24 DMSO-treated control wells at each cell density for every concentration of Compound B for all triplicate wells. The percent intensity values were used in model 205 of XLfit in Microsoft Excel to calculate gIC50s for the low and high seeding density (a 4 parameter logistical fit). Specifically, the midpoint of the growth window (the gIC50) falls half way between the number of cells at the time of compound addition (T=0) and the growth of control cells treated with DMSO. The gIC50 value serves as a metric for measuring the inhibition of proliferation in cancer cells. […] Finally, where data quality permits, the Ymin values (defined as the maximum growth inhibition relative to the cell density at Time-zero) were calculated as a measure of cytotoxicity where data were of reasonable quality."}, "[1]": {"system": "panel of 15 human breast cell lines", "test": "Breast Cancer Cell Line Panel A proliferation assay, panel summary", "type": "cell-based", "procedure": "as §1, with “The dosing solution of Compound B was first prepared in DMSO at a master stock concentration of 10 mM. 1:3 serial dilutions were then made of the stock solution to give a range of working stock concentrations; 10.00 mM, 3.164 mM, 1.001 mM, 316.9 μM, 100.3 μM, 31.74 μM, 10.04 μM, 3.178 μM, 1.006 μM and 318.3 nM. The working stock concentrations of Compound B were then dispensed into the seeded cancer cell lines using a Biomek FX liquid handler to give final treatment concentrations of 0.1% of the stock concentration. A similar volume of DMSO without Compound B was dispensed into the 24 control wells of each seeding density at a concentration of 0.1%.” left out, “After a 72 h incubation, an equal volume of the CellTiter-Glo (CellTiter-Glo Luminescent Cell Viability Assay, Promega, Madison, Wis.) to that of the cell culture medium was added into each well of the plate.” left out\nThe luminescence of Compound B treated cells was compared relative to the average of the 24 DMSO-treated control wells at each cell density for every concentration of Compound B for all triplicate wells. […] Finally, where data quality permits, the Ymin values (defined as the maximum growth inhibition relative to the cell density at Time-zero) were calculated as a measure of cytotoxicity where data were of reasonable quality."}, "PI3K family of enzymes": {"system": "PI3K family of enzymes", "test": "Selectivity in a large panel of protein kinases", "type": "biochemical"}, "[2]": {"system": "panel of 51 human breast cell lines", "test": "Breast Cell Line Panel B proliferation assay, panel summary", "type": "cell-based", "settings": "for IC50: 51 human breast cell lines", "procedure": "From the stock concentration, 8 serial dilutions (1:5) were made with DMSO.\nGenerally, about 5 μl was added to the 100 μl of cell culture during the treatment, and each dose was replicated in three wells.\nDay −1: Plate cells in 100 μl volume in 96 well plate. • Note: Cell number seeded adjusted for growth characteristics, so that at time of assay for proliferation following three-day drug treatment, the control wells should still be in log-growth phase (sub-confluent). Day 0: Drug added to plate for treatment. • A time 0 plate was processed for the proliferation assay to establish a baseline reading at time when drug was added.\nLBNL are following the protocols set up by the NCI/NIH DTP Human Tumor Cell Line Screen Process (http://dtp.nci.nih.gov/branches/btb/ivclsp.html) and summarized below.\n[(Ti−Tz)/(C−Tz)]×100 for concentrations for which Ti>/=Tz\n[(Ti−Tz)/Tz]×100 for concentrations for which Ti<Tz. • C: control growth (vehicle control growth) • Tz: reading at time 0 • Ti: test growth in the presence of drug at the nine concentration levels gIC50: Growth inhibition of 50% is calculated from\n[(Ti−Tz)/(C−Tz)]×100=50, • which is the drug concentration resulting in a 50% reduction in the net growth in control cells during the drug incubation. TGI: Total growth inhibition is calculated from\nTi=Tz. • The drug concentration resulting in total growth inhibition (down to the ‘time 0’ baseline). LC50: Net loss of cell growth at 50% is calculated from\n[(Ti−Tz)/Tz]×100=−50. • The concentration of drug resulting in a 50% reduction in the cell number at the end of the drug treatment as compared to that at the beginning (time 0) indicating a net loss of cells following treatment.\nValues are calculated for each of these three parameters if the level of activity is reached; however, if the effect is not reached or is exceeded, the value for that parameter is expressed as greater or less than the maximum or minimum concentration tested."}}, "note": "Like-named read-outs stand apart in the source and are kept apart here."}
{"smiles": "COc1ncc(-c2ccc3nccc(-c4ccnnc4)c3c2)cc1NS(=O)(=O)c1ccc(F)cc1F", "note": "[Compound B, 2,4-difluoro-N-{2-(methyloxy)-5-[4-(4-pyridazinyl)-6-quinolinyl]-3-pyridinyl}benzenesulfonamide]", "values": [{"measurement": "High Density Y-Min", "setting": "HCC1954; HCC1954, high density, % of cells at T = 0", "result": 18.3, "unit": "%"}, {"measurement": "Low Density Y-Min", "setting": "HCC1954; HCC1954, low density, % of cells at T = 0", "result": 19.8, "unit": "%"}, {"measurement": "IC50", "setting": "HCC1954; HCC1954, high seeding density, 72 h, read-out: High Density gIC50", "result": 3.4, "unit": "nM"}, {"measurement": "IC50", "setting": "HCC1954; HCC1954, low seeding density, 72 h, read-out: Low Density gIC50", "result": 3, "unit": "nM"}, {"measurement": "IC50", "setting": "HCC1954; HCC1954, mean of low and high density, read-out: Mean gIC50", "result": 3.2, "unit": "nM"}, {"measurement": "IC50", "setting": "[1]; 15 human breast cell lines, read-out: overall median gIC50", "result": 3.2, "unit": "nM"}, {"measurement": "tumor cell lines with gIC50>20 nM", "setting": "[1]; number of lines / lines tested", "result": "3/15"}, {"measurement": "tumor cell lines with gIC50s<3 nM", "setting": "[1]; number of lines / lines tested", "result": "7/15"}, {"measurement": "selectivity for the PI3K family of enzymes", "setting": "PI3K family of enzymes", "result": "good selectivity"}, {"measurement": "IC50", "setting": "[2]; read-out: average gIC50", "result": 28.9, "unit": "nM"}, {"measurement": "IC50", "setting": "[2]; read-out: gIC50s across the panel (range)", "result": "1.1 to 398", "unit": "nM"}, {"measurement": "IC50", "setting": "[2]; read-out: overall median gIC50", "result": 10.4, "unit": "nM"}, {"measurement": "tumor cell lines with gIC50>30 nM", "setting": "[2]; number of lines / lines tested", "result": "16/51"}, {"measurement": "tumor cell lines with gIC50s<3 nM", "setting": "[2]; number of lines / lines tested", "result": "7/51"}]}
